Patent publication US20020102688A1, “Methods and products for the synthesis of oligosaccharide structures on glycoproteins, glycolipids, or as free molecules, and for the isolation of cloned genetic sequences that determine these structures” (The Regents of the University of Michigan, priority 1990, published 2002)
Read-outs that look alike come from different tables or passages of the source.

How the values were obtained:
[1] = system: Griffonia simplicifolia isolectin I B4 (GS I-B4); assay: Hapten inhibition of FITC-GS I-B4 staining of COS-1 cells transfected with pCDM7-αGT; assay type: binding; conditions: 50 mM raffinose
Protocol: COS-1 cells transfected with plasmid DNAs were harvested 48-72-hr after transfection. These were stained with either fluorescein isothiocyanate-conjugated GS I-B4 at 10 μg per ml in staining media or with fluorescein isothiocyanate-conjugated GS I-B4 that had been previously incubated with 50 mM raffinose. Cells were then subjected to analysis by fluorescence-activated cell sorting as described above.

F9 teratocarcinoma cells = assay: (α1-3)GT specific activity in retinoic acid-differentiated F9 cells; assay type: cell-based, mouse
[2] = molecular target: T1, recombinant human (α1,2)fucosyltransferase (Homo sapiens, UniProt P19526); assay: Apparent Michaelis constants of recombinant (α1,2)fucosyltransferase expressed in COS-1 cells; assay type: biochemical
T1 construct: expressed in transfected cells; host or cells: COS-1 cells, transient DEAE-dextran transfection, cell extracts
T1 sequence (P19526 1-365): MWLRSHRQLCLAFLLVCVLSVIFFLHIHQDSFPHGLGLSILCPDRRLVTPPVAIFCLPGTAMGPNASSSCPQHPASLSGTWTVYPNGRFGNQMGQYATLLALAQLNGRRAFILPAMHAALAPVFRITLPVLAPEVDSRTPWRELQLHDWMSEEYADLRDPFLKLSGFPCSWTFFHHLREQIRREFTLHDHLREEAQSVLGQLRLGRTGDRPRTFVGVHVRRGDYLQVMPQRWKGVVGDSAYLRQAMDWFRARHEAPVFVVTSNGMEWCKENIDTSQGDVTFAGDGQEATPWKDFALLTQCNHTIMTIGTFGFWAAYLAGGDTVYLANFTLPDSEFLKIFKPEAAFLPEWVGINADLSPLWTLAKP
Protocol: (§1) Fucosyltransferase assays were performed by a modification of the procedure reported by Chester et al. (Chester et al, Eur. J. Biochem., 69: 583-593, 1976). The standard assay contained GDP-[^14]fucose (3 μM) phenyl-β-D-galactoside (25 mM), ATP (5 mm) and the enzyme solution (1-10 μl) in 20 μl of 25 mM sodium phosphate buffer, pH 6.1. Based upon preliminary assays, amounts of added enzyme activities were adjusted to ensure that reactions were linear throughout the period of incubation (4 h for fractionated serum, 2 h for each of the other enzyme preparations). Under these conditions, less than 15% of the substrate was consumed during the incubation period. […] The final pH value of each reaction was determined with a micro pH probe. […] The concentration of GDP-fucose in this stock solution was calculated from the UV absorbance at 254 nm of an aliquot diluted in water. […] The supernatant contained virtually 100% of the radiolabelled product; this was collected, and an aliquot was used for separation and quantitation of the fucosylated product using the hydrophobic interaction chromatography method described below. […] This background acceptor “activity” was always less than 3% of the radioactivity incorporated into the phenyl-β-D-galactoside acceptor. […] Intercepts were calculated by the least squares estimation method. […]

[3] = system: monoclonal anti-H antibody; assay: Hapten inhibition of anti-H antibody binding to mH1-12 cells (indirect immunofluorescence); parameters: species or system mouse; conditions: antibody preincubated with hapten, 20 mM
Protocol: Immunofluoroscence was performed on cells plated on 8-well tissue culture chamber slides (Lab-Tek). Cells were plated at a density of 5×10^4/well 24 h prior to analysis. Anti-H and anti-A primary antibodies were diluted in PBS containing bovine serum albumin at 2 mg/ml, to a final concentration of 10 μg/ml. Cell-bound primary antibodies were detected with FITC-conjugated goat anti-mouse IgM, diluted to 40 μg/ml in PBS containing 2 mg/ml bovine serum albumin.
Hapten Inhibition—Plated cells were washed twice with PBS, and were incubated for 30 min at 4° C. with 100 μl of diluted anti-H antibody, or with 100 μl of diluted antibody containing different oligosaccharide haptens, each at a concentration of 20 mM. The chambers were then washed twice, and 100 μl of FITC-conjugated goat anti-mouse IgM was added. After 30 min at 4° C., the chambers were washed three times with PBS, and the cells were fixed at room temperature for 10 min in 3.7% formaldehyde in PBS. The cells were washed twice with PBS, the chambers were removed, and the slide was mounted in PBS containing 25% glycerol. Cells were examined by fluorescence microscopy using a Zeiss Axiophot photomicroscope equipped with fluorescence epiillumination.

(α1,2)fucosyltransferase = assay: (α1,2)Fucosyltransferase assay, substrate and effector tests; assay type: biochemical
Protocol: as §1

α-fucosidase activity = assay: α-Fucosidase activity in enzyme preparations; assay type: biochemical; conditions: 10 mM; fractionated human serum and mouse intestinal mucosa extracts
Protocol: Each enzyme preparation was also tested for α-fucosidase activity that could hydrolyze the [^14C]fucosylphenyl-β-D-galactoside product and prevent accurate determination of (α1,2)fucosyltransferase activity. Enzyme preparations were incubated with purified [^14C]fucosylphenyl-β-D-galactoside (7000 cpm, 10 pmol) in fucosyltransferase assay buffer, but in the absence of added GDP-[^14C]fucose or phenyl-β-D-galactoside. These reactions were incubated at 37° C. for various times, and were then fractionated by the Sep-Pak method to determine the amount of remaining [^14C]fucosylphenyl-β-D-galactoside. Fractionated human serum and mouse intestinal mucosa extracts each contained significant α-fucosidase activity. […] Therefore 10 mM L-fucose was included when assaying these enzyme sources. Significant amounts of α-fucosidase activity were not detected in any of the other cell extracts; product hydrolysis never exceeded 1%/h under the standard assay conditions.

[4] = system: nucleotide pyrophosphatase activity; assay: Nucleotide pyrophosphatase activity in mock fucosyltransferase assays; assay type: biochemical; conditions: 5 mM in standard assay cocktail
Protocol: ATP (5 mM) was therefore included in all assays to inhibit nucleotide pyrophosphatase activity. […] Each enzyme source was incubated for 1 to 4 h at 37° C. in 20 μl of standard assay cocktail, but in the absence of phenyl-β-D-galactoside. After the reactions were terminated, an aliquot of each was spotted on Whatman No. 3MM, fractionated by descending paper chromatography for 20 h in solvent B, and radioactivity was determined as described above. Authentic GDP-[^14C]fucose, [^14C]fucose-1-phosphate, and L-[^14C]fucose standards were chromatographed in parallel. This system separates GDP-fucose, fucose-1-phosphate, and fucose. It therefore allows quantitation of the amount of GDP-[^14C]fucose remaining at the end of the incubation, and thus provides an estimate of pyrophosphatase activity. Under the standard assay conditions, more than 97% of the GDP-[^14C]fucose initially present in each mock reaction remained unhydrolyzed and available for transglycosylation.

[5] = molecular target: T2, (α1,2)fucosyltransferase found in human milk (Se locus) (Homo sapiens, UniProt Q10981); assay: Apparent Km for the human milk (α1,2)fucosyltransferase; assay type: biochemical; conditions: human milk enzyme; read-out: apparent Km for phenyl-β-D-galactoside
T2 sequence (Q10981 29-343 limits assumed): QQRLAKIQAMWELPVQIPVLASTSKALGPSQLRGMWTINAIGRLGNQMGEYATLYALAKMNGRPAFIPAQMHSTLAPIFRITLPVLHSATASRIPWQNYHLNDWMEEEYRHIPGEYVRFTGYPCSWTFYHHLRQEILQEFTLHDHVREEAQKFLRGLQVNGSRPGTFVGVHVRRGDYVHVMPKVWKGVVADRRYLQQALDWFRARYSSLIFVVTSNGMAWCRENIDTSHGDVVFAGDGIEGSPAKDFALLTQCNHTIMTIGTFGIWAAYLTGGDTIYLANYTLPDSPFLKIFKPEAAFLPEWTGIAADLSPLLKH
Protocol: (α1,2)Fucosyltransferase was isolated from human milk by published procedures. Briefly, 300 ml of milk from a Se-positive donor was defatted by centrifugation and was extensively dialyzed against 20 MM sodium cacodylate, pH 6.0. This was applied to a column (2.6×115 cm) of sulfopropyl-Sephadex equilibrated in 20 mM cacodylate, pH 6.0. The column was then washed with 1 liter of 20 mM cacodylate, pH 6.0, and was eluted with a linear gradient made from 1.5 liter each of 20 mM cacodylate, pH 6.0, and 500 mM NaCl in 20 mM cacodylate, pH 6.0. Fractions (13 ml) were collected and assayed for (α1,2)fucosyltransferase activity using phenyl-β-D-galactoside acceptor as described below. […]
Fucosyltransferase assays were performed by a modification of the procedure reported by Chester et al. (Chester et al, Eur. J. Biochem., 69: 583-593, 1976). […] The final pH value of each reaction was determined with a micro pH probe. […] The concentration of GDP-fucose in this stock solution was calculated from the UV absorbance at 254 nm of an aliquot diluted in water. […] The supernatant contained virtually 100% of the radiolabelled product; this was collected, and an aliquot was used for separation and quantitation of the fucosylated product using the hydrophobic interaction chromatography method described below. […] Intercepts were calculated by the least squares estimation method.

[6] = molecular target: T3, blood group H (α1,2)fucosyltransferase (Homo sapiens, UniProt P19526); assay: Apparent Km for the blood group H (α1,2)fucosyltransferase; assay type: biochemical; conditions: determined by the inventor; read-out: apparent Km for phenyl-β-D-galactoside
T3 sequence (P19526 1-365): T1 sequence (P19526 1-365)
Protocol: Serum was prepared from freshly drawn blood obtained from a non-Secretor individual. The blood was clotted in a glass tube at 37° C. for 1 h and was immediately fractionated by ammonium sulfate precipitation exactly as described. The 20%-40% ammonium sulfate fraction was dialyzed against 2 changes of 4 liters of water (8 h each) at 4° C. Assay of (α1,2)fucosyltransferase was done immediately. Alternatively, the fractionated serum was aliquoted and stored at −20° C. until use.
Fucosyltransferase assays were performed by a modification of the procedure reported by Chester et al. (Chester et al, Eur. J. Biochem., 69: 583-593, 1976). […] The final pH value of each reaction was determined with a micro pH probe. […] The concentration of GDP-fucose in this stock solution was calculated from the UV absorbance at 254 nm of an aliquot diluted in water. […] The supernatant contained virtually 100% of the radiolabelled product; this was collected, and an aliquot was used for separation and quantitation of the fucosylated product using the hydrophobic interaction chromatography method described below. […] This background acceptor “activity” was always less than 3% of the radioactivity incorporated into the phenyl-β-D-galactoside acceptor. […] Intercepts were calculated by the least squares estimation method.

## OC[C@H]1O[C@H](OC[C@H]2O[C@H](O[C@]3(CO)O[C@H](CO)[C@@H](O)[C@@H]3O)[C@H](O)[C@@H](O)[C@@H]2O)[C@H](O)[C@@H](O)[C@H]1O [raffinose]
[1]
  inhibition of GS I-B4 staining by hapten: inhibited

## CC1=C(/C=C/C(C)=C/C=C/C(C)=C/C(=O)O)C(C)(C)CCC1 [retinoic acid]
F9 teratocarcinoma cells
  specific activity of (α1-3)GT versus untreated F9 cells: approximately 4 fold

## C[C@@H]1O[C@H](OP(=O)(O)OP(=O)(O)OC[C@H]2O[C@@H](n3cnc4c(=O)[nH]c(N)nc43)[C@H](O)[C@@H]2O)[C@@H](O)[C@H](O)[C@@H]1O [GDP-fucose]
[2]; COS-1 cells transfected with pH3.4, phenyl-β-D-galactoside 25 mM, read-out: apparent Km for GDP-fucose
  Km: 17.5 µM

## C[C@H](O)[C@@H](O)[C@@H](O)[C@H](O)C=O [L-fucose]
[3]
  inhibition of anti-H antibody binding to mH1-12 cells by hapten: does not inhibit
(α1,2)fucosyltransferase; 10 mM, reconstruction experiments with cell extracts
  effect on (α1,2)fucosyltransferase activity: does not alter the activity
α-fucosidase activity
  inhibition of α-fucosidase activity: effectively inhibited

## C[C@@H]1O[C@H](OP(=O)(O)OP(=O)(O)OC[C@H]2O[C@@H](n3cnc4c(=O)[nH]c(N)nc43)[C@H](O)[C@@H]2O)[C@@H](O)[C@H](O)[C@@H]1O [GDP-β-L-fucose]
(α1,2)fucosyltransferase
  activity as a substrate for (α1,2)fucosyltransferase: inactive

## Nc1ncnc2c1ncn2[C@@H]1O[C@H](COP(=O)(O)OP(=O)(O)OP(=O)(O)O)[C@@H](O)[C@H]1O [ATP]
[4]
  inhibition of nucleotide pyrophosphatase activity: Effective inhibition

## OC[C@H]1O[C@@H](Oc2ccccc2)[C@H](O)[C@@H](O)[C@H]1O [phenyl-β-D-galactoside]
[2]; COS-1 cells transfected with pCDM7-α(1,2)FT, GDP-[14C]fucose 3 μM, read-out: apparent Km for phenyl-β-D-galactoside
  Km: 2400 µM
[5]
  Km: 15100 µM
[6]
  Km: 3100 µM
